The source of these data is patent US12098139B2, “Chemokine receptor modulators and uses thereof” (RAPT Therapeutics, Inc., priority 2018, dated 2024).

The target of one test is T1, hCCR4 (Chem5-hCCR4 cells) (Homo sapiens, UniProt P51679).
T1 sequence (P51679 1-360): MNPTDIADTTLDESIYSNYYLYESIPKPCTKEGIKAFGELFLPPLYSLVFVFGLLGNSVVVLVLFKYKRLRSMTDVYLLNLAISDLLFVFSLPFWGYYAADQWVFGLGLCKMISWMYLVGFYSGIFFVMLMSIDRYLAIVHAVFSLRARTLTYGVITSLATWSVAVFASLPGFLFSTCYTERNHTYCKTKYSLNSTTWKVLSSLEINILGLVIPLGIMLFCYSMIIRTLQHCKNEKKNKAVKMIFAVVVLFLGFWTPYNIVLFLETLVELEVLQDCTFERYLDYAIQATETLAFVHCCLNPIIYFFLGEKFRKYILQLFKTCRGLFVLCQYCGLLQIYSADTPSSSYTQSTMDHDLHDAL
The experiment in a line: Calcium flux assay (CCL22-stimulated, FLIPR Calcium 6 dye). It counts as cell-based. The note with it: Table 3, CCL22 1.5 nM, read-out: Potency (IC50). The procedure: Calcium Flux Assay. Compounds were evaluated in a calcium flux assay substantially performed as follows. Chem5-hCCR4 cells (EMD Millipore, Hayward, CA; HTS009C) were cultured under standard conditions and frozen in aliquots of 10×10^6 cells/mL. The day prior to compound testing, a vial was rapidly thawed and pipetted into 20 mL media (DMEM+10% FBS+1% Pen-Strep+1% L-glutamine). Cells were harvested by centrifugation and re-suspended in fresh culture medium. 25 μL of cell suspension was seeded into 384-well plates (Corning, Tewksbury, MA; CellBind with black wall/clear bottom). The plates were centrifuged at 300 g for 10 seconds and incubated overnight at 37° C. and 5% CO2. The day of compound testing, media was removed from the plates and 25 μL serum free media was added to each well. Plates were returned to the incubator for 2 h. 25 μL assay buffer (Hank's balanced salt solution+20 mM HEPES pH 7.4) containing FLIPR Calcium 6 dye (Molecular Devices, Sunnyvale, CA; #R8191) and probenecid (2.5 mM) was added to each well and incubated at 37° C. and 5% CO2 for 2 h. Compounds in DMSO were added to the plates using an HP D300e digital dispenser, and all wells were normalized to contain 0.25 μL (0.5%) DMSO. Plates were incubated for 1 hour at 37° C. and 5% CO2. CCL22 (Peprotech; Rockyhill, NJ) was diluted in assay buffer containing 0.1% BSA to 7.5 nM (corresponding to 5×EC80 of 1.5 nM).
Assay plates and working solution of CCL22 were transferred to the FlexStation plate reader (Molecular Devices) at 37° C. for 5 min of equilibration. Fluorescence recordings at 485 excitation/525 emission were performed at 2.5 second intervals. At t=16 seconds, 12.5 μL of CCL22 solution was added to each well and reads continued for 30 seconds at 2.5 second intervals. The minimum fluorescence (Fmin) was calculated by averaging the reads prior to ligand addition and the change in fluorescence (ΔF) was calculated by subtracting the Fmin from the average of the reads following ligand addition. The response ΔF/Fmin was plotted as a function of the compound concentration and the IC50 values were determined by non-linear regression analysis using a 4-parameter fit in either PRISM software (GraphPad; La Jolla, CA) or Dotmatics Browser.
Background: Calcium assays in cells follow changes in intracellular calcium, usually with a dye or a luminescent sensor.
On to `C[C@@H](Nc1nc(N2CC([C@H]3CCCN(CCO)C3)C2)cnc1C#N)c1ccc(Cl)cc1Cl` [Example 1, 3-(((R)-1-(2,4-dichlorophenyl)ethyl)amino)-5-(3-((R)-1-(2-hydroxyethyl)piperidin-3-yl)azetidin-1-yl)pyrazine-2-carbonitrile], for which the concentration for half-maximal inhibition (IC50) was below 0.1 µM.

Consider `C[C@@H](Nc1cncc(N2CC([C@H]3CCCN(CCO)C3)C2)n1)c1ccc(Cl)cc1Cl` [Example 2, 2-((R)-3-(1-(6-(((R)-1-(2,4-dichlorophenyl)ethyl)amino)pyrazin-2-yl)azetidin-3-yl)piperidin-1-yl)ethan-1-ol], for which the IC50 lay in the range of 0.1 to 0.5 µM.

For `Cc1ncc(N2CC([C@H]3CCCN(CCO)C3)C2)nc1N[C@H](C)c1ccc(Cl)cc1Cl` [Example 3, 2-((R)-3-(1-(6-(((R)-1-(2,4-dichlorophenyl)ethyl)amino)-5-methylpyrazin-2-yl)azetidin-3-yl)piperidin-1-yl)ethan-1-ol], the half-inhibitory concentration (IC50) was above 0.5 µM.

On to `C[C@@H](Nc1cnc(C#N)c(N2CC([C@H]3CCCN([C@H]4C[C@@H](C(=O)O)C4)C3)C2)n1)c1ccc(Cl)cc1Cl` [Example 4, (1S,3s)-3-((R)-3-(1-(3-cyano-6-(((R)-1-(2,4-dichlorophenyl)ethyl)amino)pyrazin-2-yl)azetidin-3-yl)piperidin-1-yl)cyclobutane-1-carboxylic acid], for which the IC50 is above 0.5 µM.

`C[C@@H](Nc1nc(N2CC([C@H]3CCCN([C@H]4C[C@@H](C(=O)O)C4)C3)C2)cnc1C#N)c1ccc(Cl)cc1Cl` [Example 5, (1S,3s)-3-((R)-3-(1-(5-cyano-6-(((R)-1-(2,4-dichlorophenyl)ethyl)amino)pyrazin-2-yl)azetidin-3-yl)piperidin-1-yl)cyclobutane-1-carboxylic acid]: the IC50 is 0.1 to 0.5 µM.

Take `C[C@@H](Nc1nc(N2CC([C@H]3CCCN(C4CCCC4C(=O)O)C3)C2)cnc1C#N)c1ccc(Cl)cc1Cl` (stereo partly drawn) [Example 6, 2-((R)-3-(1-(5-cyano-6-(((R)-1-(2,4-dichlorophenyl)ethyl)amino)pyrazin-2-yl)azetidin-3-yl)piperidin-1-yl)cyclopentane-1-carboxylic acid]: the IC50 lay in the range of 0.1 to 0.5 µM.

`C[C@@H](Nc1nc(N2CC([C@H]3CCCN(CCO)C3)C2)cnc1C#N)c1ccc(S(C)(=O)=O)cc1Cl` [Example 7, 3-(((R)-1-(2-chloro-4-(methylsulfonyl)phenyl)ethyl)amino)-5-(3-((R)-1-(2-hydroxyethyl)piperidin-3-yl)azetidin-1-yl)pyrazine-2-carbonitrile]: the IC50 is above 0.5 µM.

For `C[C@@H](Nc1nc(N2CC([C@H]3CCCN([C@H]4C[C@@H](C(=O)O)C4)C3)C2)ncc1Cl)c1ccc(Cl)cc1Cl` [Example 8, (1S,3s)-3-((R)-3-(1-(5-chloro-4-(((R)-1-(2,4-dichlorophenyl)ethyl)amino)pyrimidin-2-yl)azetidin-3-yl)piperidin-1-yl)cyclobutane-1-carboxylic acid], the IC50 was below 0.1 µM.

Consider `C[C@@H](Nc1nc(N2CC([C@H]3CCCN([C@H]4C[C@@H](C(=O)O)C4)C3)C2)ncc1Br)c1ccc(Cl)cc1Cl` [Example 9, (1S,3s)-3-((R)-3-(1-(5-bromo-4-(((R)-1-(2,4-dichlorophenyl)ethyl)amino)pyrimidin-2-yl)azetidin-3-yl)piperidin-1-yl)cyclobutane-1-carboxylic acid], for which the IC50 is below 0.1 µM.

Still in this test, the particulars now being: Table 4, CCL22 1.5 nM, read-out: Potency (IC50).
In the case of `C[C@@H](Nc1cnc(C#N)c(N2CC([C@H]3CCCN(C4CC(C)(C(=O)O)C4)C3)C2)n1)c1ccc(Cl)cc1Cl` (single isomer, unassigned) [Example 52], the IC50 was above 0.5 µM.

The same test, now with this note: Table 5, CCL22 1.5 nM, read-out: Potency (IC50).
`C[C@@H](Nc1nc(N2CC([C@H]3CCCN(C4CC(C)(C(=O)O)C4)C3)C2)ncc1C1CC1)c1ccc(Cl)cc1Cl` (single isomer, unassigned) [Example 54]: the IC50 is below 0.1 µM.

As to `Cc1cc2c(N[C@H](C)c3ccc(Cl)cc3Cl)nc(N3CC([C@H]4CCCN(C5CC(C)(C(=O)O)C5)C4)C3)nc2s1` (single isomer, unassigned) [Example 67, trifluoroacetic acid], the IC50 was below 0.1 µM.

With `C[C@@H](Nc1nc(N2CC([C@H]3CCCN(C4CC(C)(C(=O)O)C4)C3)C2)ncc1CO)c1ccc(Cl)cc1Cl` (single isomer, unassigned) [Example 68], the IC50 was below 0.1 µM.

For `C[C@@H](Nc1nc(N2CC([C@H]3CCCN(C4CC(C)(C(=O)O)C4)C3)C2)nc2nc[nH]c12)c1ccc(Cl)cc1Cl` (single isomer, unassigned) [Example 69], the IC50 was 0.1 to 0.5 µM.

Turning to `C[C@@H](Nc1nc(N2CC([C@H]3CCCN(C4CC(C)(C(=O)O)C4)C3)C2)nc2scnc12)c1ccc(Cl)cc1Cl` (single isomer, unassigned) [Example 71, trifluoroacetic acid], the concentration for half-maximal inhibition (IC50) was below 0.1 µM.

Turning to `C[C@@H](Nc1nc(N2CC([C@H]3CCCN(C4CC(C)(C(=O)O)C4)C3)C2)nc2cc[nH]c12)c1ccc(Cl)cc1Cl` (single isomer, unassigned) [Example 72, trifluoroacetic acid], the IC50 was below 0.1 µM.

With `Cc1csc2nc(N3CC([C@H]4CCCN(C5CC(C)(C(=O)O)C5)C4)C3)nc(N[C@H](C)c3ccc(Cl)cc3Cl)c12` (single isomer, unassigned) [Example 74, trifluoroacetic acid], the half-inhibitory concentration (IC50) is below 0.1 µM.

Take `C[C@@H](Nc1nc(N2CC([C@H]3CCCN(C4CC(C)(C(=O)O)C4)C3)C2)nc2[nH]ccc12)c1ccc(Cl)cc1Cl` (single isomer, unassigned) [Example 75, trifluoroacetic acid]: the IC50 was below 0.1 µM.

As to `CCc1nc(N2CC([C@H]3CCCN(C4CC(C)(C(=O)O)C4)C3)C2)nc(N[C@H](C)c2ccc(Cl)cc2Cl)c1Cl` (single isomer, unassigned) [Example 77], the IC50 was below 0.1 µM.

As to `CC(=O)c1cnc(N2CC([C@H]3CCCN(C4CC(C)(C(=O)O)C4)C3)C2)nc1N[C@H](C)c1ccc(Cl)cc1Cl` (single isomer, unassigned) [Example 78], the IC50 is below 0.1 µM.

For the compound `C[C@@H](Nc1cc(C2CC2)nc(N2CC([C@H]3CCCN(C4CC(C)(C(=O)O)C4)C3)C2)n1)c1ccc(Cl)cc1Cl` (single isomer, unassigned) [Example 80], the 50% inhibitory concentration (IC50) was below 0.1 µM.

Turning to `C[C@@H](Nc1nc(N2CC([C@H]3CCCN(C4CC(C)(C(=O)O)C4)C3)C2)nc2ccn(C)c12)c1ccc(Cl)cc1Cl` (single isomer, unassigned) [Example 81, trifluoroacetic acid], the concentration for half-maximal inhibition (IC50) was below 0.1 µM.

For the compound `COc1cc(N[C@H](C)c2ccc(Cl)cc2Cl)nc(N2CC([C@H]3CCCN(C4CC(C)(C(=O)O)C4)C3)C2)n1` (single isomer, unassigned) [Example 82], the IC50 was above 0.5 µM.

With `COc1cnc(N2CC([C@H]3CCCN(C4CC(C)(C(=O)O)C4)C3)C2)nc1N[C@H](C)c1ccc(Cl)cc1Cl` (single isomer, unassigned) [Example 83], the IC50 was below 0.1 µM.

For the compound `C[C@@H](Nc1nc(N2CC([C@H]3CCCN(C4CC(C)(C(=O)O)C4)C3)C2)nc(CO)c1Cl)c1ccc(Cl)cc1Cl` (single isomer, unassigned) [Example 86], the IC50 was below 0.1 µM.

Consider `C[C@@H](Nc1nc(N2CC([C@H]3CCCN(C4CC(C)(C(=O)O)C4)C3)C2)nc(CF)c1Cl)c1ccc(Cl)cc1Cl` (single isomer, unassigned) [Example 89], for which the IC50 is below 0.1 µM.

On to `Cc1cc(N[C@H](C)c2ccc(Cl)cc2Cl)nc(N2CC([C@H]3CCCN(C4CC(C)(C(=O)O)C4)C3)C2)n1` (single isomer, unassigned) [Example 90], for which the IC50 is below 0.1 µM.

For `Cc1nc(N2CC([C@H]3CCCN(C4CC(C)(C(=O)O)C4)C3)C2)nc(N[C@H](C)c2ccc(Cl)cc2Cl)c1F` (single isomer, unassigned) [Example 91, trifluoroacetic acid], the IC50 was below 0.1 µM.

Turning to `CCc1cc(N[C@H](C)c2ccc(Cl)cc2Cl)nc(N2CC([C@H]3CCCN(C4CC(C)(C(=O)O)C4)C3)C2)n1` (single isomer, unassigned) [Example 92], the IC50 was below 0.1 µM.

As a reminder, the IC50 is the concentration that inhibits the measured activity by half.
